In patent US20250285714A1, “A PHARMACEUTICAL PLATFORM TECHNOLOGY FOR DRUG DISCOVERY AND CONSUMER HEALTH PRODUCT DEVELOPMENT” (SINOVEDA CANADA INC., priority 2021, published 2025):

Legend:
[1] = human
Source text: An inhouse physiologically based pharmacokinetic (PBPK) simulation program has been established. It supports one, two and multi-compartment models. The compartmental model program was designed using Matlab and Simulink to emulate human physiological conditions. With appropriate human physiological parameter input, absorption, distribution, metabolism and excretion profiles of compounds of interest can be estimated in human.
The parameter used for the evaluation is maximum exposure index (MEI), a product of AUC and the highest percentage recorded for Cannabis.

HepG2 cells [2] = assay: rtPCR TaqMan array of cancer pathway genes in treated HepG2 cells; format: cell-based, human; conditions: 6 h; CBD 17, CBC 23, CBN 20, 1:1:1 17, sorafenib 12 μg/ml
Method: rt-PCR: Target cancer gene pathways will be analyzed using a custom Taqman array card exploring 91 unique genes involved with a few cancer pathways.
Two million HepG2 cells in IMDM media with 20% FBS, and 1% ethanol were seeded in T75 flasks and incubated at 37° C., 7.5% CO2 until 70-80% confluent (approx. […]). The media were replenished with media containing individual cannabinoids (CBD 17 μg/ml, CBC 23 μg/ml, CBN 20 μg/ml) and cannabinoid mixture of CBD:CBC:CBN of 1:1:1 (17 μg/ml) and incubated for 6 hours prior to harvest. […] Untreated cells were included as a negative control Glyceraldehyde-3-phosphate dehydrogenase (GAPDH) was included as an endogenous control and used for normalization of the data.
RNA was extracted using Invitrogen's Dynabead mRNA DIRECT kit using the recommended protocol to provide 50 μL of a purified mRNA solution. […] of RT master mix was mixed into the mRNA solution and the mixture left to react at 37° C. for 60 minutes. Reverse transcriptase inactivation was performed at 95° C. for 5 minutes and the resulting cDNA samples were kept at 4° C. until use. Fifty-five microliters of TaqMan Fast Advance master mix were added to an equal amount of cDNA sample containing 1 μg/100 μl of cDNA, which was loaded into each card reservoir. The cards were centrifuged twice at 1200 RPM for 3 minutes in a Legend XFR centrifuge and the rtPCR reaction was conducted in a QuantStudio7 PCR instrument using the standard settings with 40 amplification cycles.
Assessment of cancer gene pathways were carried out using custom designed TaqMan array cards exploring 86 genes linked to numerous cancer related pathways. […] In addition to individual pathways, genes linked to specific cellular processes were also explored.

HepG2 cells [3] = assay: In-cell Western-blot protein expression in treated HepG2 cells; format: cell-based, human; conditions: six hour treatment; CBD 17, CBC 23, CBN 20, Sorafenib 12, SCI-111 17, SCI-521 17 μg/ml
Method: In-cell Western-blot analysis: Protein expression was assessed by seeding 1000 HepG2 cells/well from cyro frozen stocks into 384 well optical bottom black culture plates from Thermo-Scientific (item 142761) in IMDM media with 20% FBS and 1% ethanol. […] After a six hour treatment, the cells were fixated with 4% formaldehyde for 15 minutes, permeated with 0.1% triton-x100 for 10 minutes, and left in blocking buffer (phosphate buffered saline (PBS) with 3% bovine serum albumin (BSA)) overnight at 4 degrees Celsius. The following day, the cells were rinsed with PBS, incubated with 25 μl PBS containing primary antibody (Table 1) for 3 hours at 25° C. Subsequently, the primary antibody was removed, cells were rinsed twice with PBS, and incubated with 25 μl of PBS containing the secondary antibody (Rabbit: Alexa Fluor 790 donkey anti-rabbit IgG (H+L) Lot 2409042; Mouse: Alexa Fluor 790 donkey anti-mouse IgG (H+L) Lot 2300923) at a concentration of 1:2000. Draq5 (1:2000) was added for normalization of data. After an hour incubation in the secondary antibody, the cells were rinsed with PBS and readings at 700 and 800 nm were acquired on a Licor Odyssey fluorescence imager with a resolution of 21 μm. Analysis was subsequently performed with Empiria Studio 2.1. A total of 5 samples were collected per antibody and the sample size was reduced to 3 for the statistical analysis.

[4] = known human values; cited from earlier work

## CC1(C)C2CCC1(C)C(O)C2 (centres unmarked) [Borneol]
[1]
  MEI, AUC* % mass: 0.10

## CCCCCc1cc(O)c2c(c1)OC(C)(CCC=C(C)C)C=C2 (centres unmarked) [CBC, Cannabichromene]
HepG2 cells [2]
  rtPCR Log2 fold change relative to untreated cells, AKT1 (PI3K/AKT/MTOR): −1.915 Log2 fold change
  rtPCR Log2 fold change relative to untreated cells, APFAF1 (Apoptosis): −1.945 Log2 fold change
  rtPCR Log2 fold change relative to untreated cells, BAD (Apoptosis): −2.917 Log2 fold change
  rtPCR Log2 fold change relative to untreated cells, BAX (Apoptosis): −2.332 Log2 fold change
  rtPCR Log2 fold change relative to untreated cells, BCL2 (Apoptosis): 3.95 Log2 fold change
  rtPCR Log2 fold change relative to untreated cells, BCL2L1 (Apoptosis): −1.241 Log2 fold change
  rtPCR Log2 fold change relative to untreated cells, CAMK1 (Ca signaling): −2.15 Log2 fold change
  rtPCR Log2 fold change relative to untreated cells, CCND1 (Cell Cycle Arrest): −1.206 Log2 fold change
  rtPCR Log2 fold change relative to untreated cells, CDK1 (Cell Cycle Arrest): −1.725 Log2 fold change
  rtPCR Log2 fold change relative to untreated cells, CDK2 (Cell Cycle Arrest): −1.316 Log2 fold change
  rtPCR Log2 fold change relative to untreated cells, CDK4 (Cell Cycle Arrest): −1.914 Log2 fold change
  rtPCR Log2 fold change relative to untreated cells, CDK6 (Cell Cycle Arrest): −1.735 Log2 fold change
  rtPCR Log2 fold change relative to untreated cells, CRK - p38 (Cellular Adhesion): −1.414 Log2 fold change
  rtPCR Log2 fold change relative to untreated cells, CTNNB1 (Cellular Adhesion): −1.487 Log2 fold change
  rtPCR Log2 fold change relative to untreated cells, ELK1 (Ca signaling): −3.143 Log2 fold change
  rtPCR Log2 fold change relative to untreated cells, GSK3B (Cellular Adhesion): −1.728 Log2 fold change
  rtPCR Log2 fold change relative to untreated cells, MAP1LC3A (MAP kinase): −2.006 Log2 fold change
  rtPCR Log2 fold change relative to untreated cells, MAP2K1 (MAP kinase): −2.534 Log2 fold change
  rtPCR Log2 fold change relative to untreated cells, MAPK8 (MAP kinase): −2.068 Log2 fold change
  rtPCR Log2 fold change relative to untreated cells, MITF (Drug Resistance): −4.421 Log2 fold change
  rtPCR Log2 fold change relative to untreated cells, MNT (Cell Cycle Arrest): −2.804 Log2 fold change
  rtPCR Log2 fold change relative to untreated cells, MTOR (PI3K/AKT/MTOR): −1.847 Log2 fold change
  rtPCR Log2 fold change relative to untreated cells, NOTCH1 (NOTCH): −1.949 Log2 fold change
  rtPCR Log2 fold change relative to untreated cells, PAK3 (P21) (Cell Cycle Arrest): −1.643 Log2 fold change
  rtPCR Log2 fold change relative to untreated cells, PIK3C2A (PI3K/AKT/MTOR): −1.77 Log2 fold change
  rtPCR Log2 fold change relative to untreated cells, PIK3R5 (PI3K/AKT/MTOR): −1.821 Log2 fold change
  rtPCR Log2 fold change relative to untreated cells, RAC1 (MAP kinase): −1.422 Log2 fold change
  rtPCR Log2 fold change relative to untreated cells, RASA1 (MAP kinase): −1.307 Log2 fold change
  rtPCR Log2 fold change relative to untreated cells, RASSF1 (MAP kinase): −1.813 Log2 fold change
  rtPCR Log2 fold change relative to untreated cells, ROCK1 (Cellular Adhesion): −1.213 Log2 fold change
  rtPCR Log2 fold change relative to untreated cells, SMAD2 (TGF signaling): −1.617 Log2 fold change
  rtPCR Log2 fold change relative to untreated cells, SMAD3 (TGF signaling): −2.487 Log2 fold change
  rtPCR Log2 fold change relative to untreated cells, STAT1 (JAK-STAT): −2.228 Log2 fold change
  rtPCR Log2 fold change relative to untreated cells, STAT5A (JAK-STAT): −1.559 Log2 fold change
  rtPCR Log2 fold change relative to untreated cells, SUFU (Hedgehog): −1.668 Log2 fold change
  rtPCR Log2 fold change relative to untreated cells, TAZ (HIPPO): −1.874 Log2 fold change
  rtPCR Log2 fold change relative to untreated cells, gene name not printed (Angiogenesis, row r45): −1.521 Log2 fold change
  rtPCR Log2 fold change relative to untreated cells, gene name not printed (Cell Cycle Arrest, row r42): −2.312 Log2 fold change
  rtPCR Log2 fold change relative to untreated cells, gene name not printed (Cellular Adhesion, row r57): −1.865 Log2 fold change
  rtPCR Log2 fold change relative to untreated cells, gene name not printed (HIPPO, row r33): −1.568 Log2 fold change
  rtPCR Log2 fold change relative to untreated cells, gene name not printed (PI3K/AKT/MTOR, row r20): −2.204 Log2 fold change
  rtPCR Log2 fold change relative to untreated cells, gene name not printed (PI3K/AKT/MTOR, row r22): −2.291 Log2 fold change
  rtPCR Log2 fold change relative to untreated cells, gene name not printed (Receptors, row r7): −2.51 Log2 fold change
HepG2 cells [3]
  Protein fold change, DVLD (Cellular Adhesion): 1.34 Fold change
  Protein fold change, MEK (MAP kinase/PI3K): 1.22 Fold change
  Protein fold change, MEK PO4 (MAP kinase/PI3K): 1.68 Fold change
  Protein fold change, MET PO4 (Receptor): 1.80 Fold change
  Protein fold change, PTEN PO4 (MAP kinase/PI3K): 1.40 Fold change
  Protein fold change, TEAD2 (HIPPO signaling): 1.34 Fold change
  Protein fold change, c-MYC (Apoptosis): 1.70 Fold change
  Protein fold change, p53 (Apoptosis): 1.26 Fold change

## CCCCCc1cc(O)c2c(c1)OC(C)(C)c1ccc(C)cc1-2 [CBN, Cannabinol]
HepG2 cells [2]
  rtPCR Log2 fold change relative to untreated cells, BAD (Apoptosis): −1.041 Log2 fold change
  rtPCR Log2 fold change relative to untreated cells, ELK1 (Ca signaling): −1.026 Log2 fold change
  rtPCR Log2 fold change relative to untreated cells, MAP3K (MAP kinase): 1.518 Log2 fold change
  rtPCR Log2 fold change relative to untreated cells, MAPK8 (MAP kinase): −1.284 Log2 fold change
  rtPCR Log2 fold change relative to untreated cells, NOTCH1 (NOTCH): −1.084 Log2 fold change
  rtPCR Log2 fold change relative to untreated cells, PIK3C2A (PI3K/AKT/MTOR): −1.181 Log2 fold change
  rtPCR Log2 fold change relative to untreated cells, PIK3R5 (PI3K/AKT/MTOR): −2.689 Log2 fold change
  rtPCR Log2 fold change relative to untreated cells, PPARG (Receptors): 2.204 Log2 fold change
  rtPCR Log2 fold change relative to untreated cells, SMAD3 (TGF signaling): −3.711 Log2 fold change
  rtPCR Log2 fold change relative to untreated cells, SMO (Hedgehog): 2.336 Log2 fold change
  rtPCR Log2 fold change relative to untreated cells, TAZ (HIPPO): −1.143 Log2 fold change
HepG2 cells [3]
  Protein fold change, DVLD (Cellular Adhesion): 1.66 Fold change
  Protein fold change, MEK PO4 (MAP kinase/PI3K): 1.33 Fold change
  Protein fold change, PI3K (MAP kinase/PI3K): 1.46 Fold change
  Protein fold change, TEAD2 (HIPPO signaling): 1.35 Fold change
  Protein fold change, c-MYC (Apoptosis): 1.40 Fold change
  Protein fold change, p53 (Apoptosis): 1.22 Fold change

## CCCCCc1cc(O)c(C/C=C(\C)CCC=C(C)C)c(O)c1 [Cannabigerol (CBG), Cannabigerol]
[1]
  MEI, AUC* % mass: 4.89

## C=CC(C)(O)CCC=C(C)C (centres unmarked) [Linalool]
[1]
  MEI, AUC* % mass: 0.03

## Cc1cc(=O)n(-c2ccccc2)n1C [antipyrine]
[4]
  Hepatic extraction ratio (E): 0.1

## Cc1ncc2n1-c1ccc(Cl)cc1C(c1ccccc1F)=NC2 [midazolam]
[4]
  Hepatic extraction ratio (E): 0.5

## CC1=CCC2CC1C2(C)C (stereo not drawn) [α-pinene]
[1]
  MEI, AUC* % mass: 65.77
